The values that follow come from PubChem BioAssay (NCI).

Some test systems named below: UACC-257 melanoma; MDA-MB-435; SR leukemia; COLO 205 colon; SNB-75 CNS; OVCAR-8 ovarian; SF-295 CNS; NCI-H522 lung; MOLT-4 leukemia; 786-0 renal.
Common to all, as to assay: inhibition of tumour cell growth, NCI panel, 48 h

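Interpolation was linear, between the two tested concentrations surrounding the appropriate level; five concentrations were tested over 48 hours in 96-well plates. GI50 = concentration required for 50% inhibition of growth. TGI: concentration producing complete growth inhibition.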

As for `COc1cc([N+](=O)[O-])c(S(=O)(=O)O)cc1-n1nc(-c2ccccc2)n[n+]1-c1cc(S(=O)(=O)[O-])c([N+](=O)[O-])cc1OC`, the TGI in the assay with UACC-257 melanoma, in the assay with MDA-MB-435, in the assay with SR leukemia, in the assay with COLO 205 colon, in the assay with SNB-75 CNS and in the assay on OVCAR-8 ovarian was more than 100 µM each time. For the same compound, the TGI with SF-295 CNS, with NCI-H522 lung, in the assay with MOLT-4 leukemia and in the assay on 786-0 renal was more than 100 µM each time.
In the case of `CCCN(CCC)c1ccc(C=O)c(OC)c1`, the GI50 was 18500 nM in the assay on UACC-257 melanoma; 20000 nM in the assay on MDA-MB-435; 10.7 µM in the assay with SR leukemia; 22.3 µM in the assay with COLO 205 colon; 16400 nM in the assay on SNB-75 CNS; 27500 nM in the assay with OVCAR-8 ovarian. Also, the GI50 with SF-295 CNS is 15800 nM; in the assay with NCI-H522 lung, 18100 nM; in the assay on MOLT-4 leukemia, 11.9 µM; in the assay with 786-0 renal, 29400 nM. Besides, the TGI in the assay on UACC-257 melanoma is 61.2 µM; with MDA-MB-435, 78.9 µM; in the assay on SR leukemia it was 34.5 µM; with COLO 205 colon, 63.4 µM; with SNB-75 CNS it was 95.9 µM; in the assay with OVCAR-8 ovarian, more than 100 µM. Further, the TGI with SF-295 CNS was 64.5 µM; in the assay with NCI-H522 lung, 67.3 µM; in the assay with MOLT-4 leukemia, 40.4 µM; in the assay with 786-0 renal it was more than 100 µM.
Turning to `CCN(CCc1ccc(F)cc1)c1ccc(CO)c(Cl)c1`, the GI50 in the assay on UACC-257 melanoma is 1420 nM; with MDA-MB-435, 15600 nM; with SR leukemia, 13.1 µM; in the assay with COLO 205 colon, 7.06 µM; in the assay with SNB-75 CNS it was 9260 nM; with OVCAR-8 ovarian it was 10800 nM. Further, the GI50 in the assay with SF-295 CNS was 3440 nM; in the assay on NCI-H522 lung, 10900 nM; in the assay with MOLT-4 leukemia it was 14.3 µM; with 786-0 renal, 12200 nM. Further, the TGI in the assay on UACC-257 melanoma is 4.87 µM; in the assay on MDA-MB-435 it was 31.8 µM; with SR leukemia, 42.5 µM; in the assay on COLO 205 colon, 21.5 µM; with SNB-75 CNS, 25.9 µM; in the assay with OVCAR-8 ovarian, 27.4 µM. Also, the TGI in the assay with SF-295 CNS came to 17.6 µM; with NCI-H522 lung it was 25.4 µM; in the assay on MOLT-4 leukemia, 50.1 µM; in the assay on 786-0 renal, 27 µM.
For `CCc1nc2cc(/C=C/C(=O)NO)c(F)cc2c(=O)n1CCc1ccccc1`, the GI50 in the assay on UACC-257 melanoma is 2120 nM; with MDA-MB-435, 1200 nM; in the assay on SR leukemia, 0.731 µM; in the assay with COLO 205 colon, 0.497 µM; in the assay with SNB-75 CNS it was 2410 nM; with OVCAR-8 ovarian, 753 nM. Further, the GI50 was 1890 nM with SF-295 CNS, 502 nM in the assay with NCI-H522 lung, 1.03 µM in the assay on MOLT-4 leukemia and 1700 nM in the assay on 786-0 renal. Moreover, the TGI in the assay with UACC-257 melanoma was 7.41 µM; in the assay with MDA-MB-435, 10.2 µM; with SR leukemia, more than 100 µM; in the assay with COLO 205 colon, 3.14 µM; in the assay on SNB-75 CNS it was 17.3 µM; in the assay with OVCAR-8 ovarian, 9.22 µM. Further, the TGI was 4.35 µM in the assay on SF-295 CNS, 3.98 µM in the assay on NCI-H522 lung, more than 100 µM with MOLT-4 leukemia and 4.49 µM with 786-0 renal.
Consider `CCCCn1c(=O)c(/C=C/C(=O)/C=C/c2ccc(O)c(OC)c2)cc2ccc(Cl)cc21`, for which the GI50 in the assay with UACC-257 melanoma was 1410 nM; in the assay on MDA-MB-435, 1770 nM; in the assay on SR leukemia, 2.04 µM; with COLO 205 colon, 1.72 µM; with SNB-75 CNS, 2260 nM; with OVCAR-8 ovarian it was 2470 nM. Moreover, the GI50 in the assay on SF-295 CNS was 2750 nM; with NCI-H522 lung it was 1780 nM; in the assay on MOLT-4 leukemia, 2.17 µM; with 786-0 renal, 1770 nM. Besides, the TGI in the assay with UACC-257 melanoma stood at 3.31 µM; in the assay on MDA-MB-435 it was 4.17 µM; with SR leukemia, 17.6 µM; in the assay with COLO 205 colon, 4.83 µM; in the assay on SNB-75 CNS it was 6.22 µM; in the assay with OVCAR-8 ovarian it was 9.49 µM. In addition, the TGI worked out at 10.3 µM in the assay on SF-295 CNS, 3.86 µM with NCI-H522 lung, 16.3 µM with MOLT-4 leukemia and 3.31 µM with 786-0 renal.
For `COc1cc(C)c(N(C)C(=O)CN(C)C)cc1Nc1nc(Nc2cccc(F)c2C(N)=O)c2cc[nH]c2n1`, the GI50 was more than 15100 nM in the assay on UACC-257 melanoma; more than 25000 nM with MDA-MB-435; 7.85 µM in the assay with SR leukemia; 5.63 µM with COLO 205 colon; more than 25000 nM in the assay on SNB-75 CNS; more than 25000 nM in the assay with OVCAR-8 ovarian. In addition, the GI50 was more than 25000 nM with SF-295 CNS, more than 25000 nM in the assay with NCI-H522 lung, more than 21.9 µM in the assay on MOLT-4 leukemia and more than 25000 nM with 786-0 renal. Further, the TGI with UACC-257 melanoma is more than 25 µM; in the assay with MDA-MB-435, more than 25 µM; with SR leukemia, more than 23.3 µM; in the assay on COLO 205 colon, more than 25 µM; with SNB-75 CNS, more than 25 µM; in the assay with OVCAR-8 ovarian it was more than 25 µM. For the same compound, the TGI in the assay with SF-295 CNS, in the assay with NCI-H522 lung, in the assay with MOLT-4 leukemia and with 786-0 renal was more than 25 µM throughout.
Regarding `O=C(/C=C/c1ccccc1)c1ccc(O)c(CN2CCN(c3cc4c(cc3F)c(=O)c(C(=O)O)cn4C3CC3)CC2)c1`, the GI50 is 1910 nM with UACC-257 melanoma; 1500 nM in the assay on MDA-MB-435; 0.807 µM in the assay with SR leukemia; 3.86 µM with COLO 205 colon; 378 nM with SNB-75 CNS; 592 nM with OVCAR-8 ovarian. Further, the figures for the GI50 in the assay with SF-295 CNS, in the assay with NCI-H522 lung and in the assay with 786-0 renal were 2050 nM, 2420 nM and 961 nM, respectively. Also, the TGI in the assay on UACC-257 melanoma is more than 100 µM; in the assay on MDA-MB-435, 25.7 µM; with SR leukemia, more than 100 µM; with COLO 205 colon, 74.5 µM; in the assay with SNB-75 CNS, 9.78 µM; in the assay on OVCAR-8 ovarian, more than 100 µM. Also, the TGI in the assay on SF-295 CNS is 26.1 µM; with NCI-H522 lung, more than 100 µM; in the assay on 786-0 renal it was more than 100 µM.
